Experimental findings from patent US9862721B2, “Tetrahydrocarboline derivative” (ONO PHARMACEUTICAL CO., LTD., priority 2011, dated 2018) are described below.

The test system of the first series is Crl:CD (Sprague-Dawley) male rat. Description: Measurement of blood pressure and heart rate in rat under wakefulness. Format: in vivo. The following applies: conscious rat, forced oral administration, 100, 300 mg/kg, up to 180 minutes. The protocol:
A Cr1:CD (Sparague-Dawley) male rat (Charles River Laboratories Japan, Inc., 8 weeks old) was anesthetized by inhalation of isoflurane. A catheter (INTRAMEDIC POLYETHYLENE Tubing PE50, CLAY ADAMS) was inserted and indwelled in a femoral artery and another end was exposed from dorsal skin. The rat was placed in a rearing cage for blood pressure measurement. After elapse of 2 hours or more from the insertion of the catheter, each of the compound of Reference Example 2 and the compound of Example 6(72) (dose: 100, 300 mg/kg) was forcedly orally administered, and blood pressure was measured under no anesthesia and no restraint. The blood pressure was measured by connecting the catheter inserted in the femoral artery and a blood pressure transducer (DX-360, Nihon Kohden Corporation) and passing through an amplifier for blood pressure measurement (Coupler.Amplifier PP-101H.AP-101H, Nihon Kohden Corporation). Blood pressure signals were captured into a data acquisition analysis system (HEM 3.5, NOTOCORD SYSTEM S.A.) through a polygraph system (PEG-1000, Nihon Kohden Corporation) to measure blood pressure (systolic pressure, diastolic pressure, mean blood pressure) and heart rate (measured from blood pressure pulse wave). […] The data were accumulated as measured values at respective time points and % variation values in which each value before administration was taken as 100.
Consider `O=C(C[C@H]1CC[C@H](C(=O)O)CC1)N1CCc2c(n(Cc3ccc(F)cc3F)c3ncccc23)C1` [Reference Example 2, trans-4-{2-[9-(2,4-difluorobenzyl)-5,6,8,9-tetrahydro-7H-pyrido[4′,3′:4,5]pyrrolo[2,3-b]pyridin-7-yl}-2-oxoethyl}cyclohexanecarboxylic acid, reference compound], for which the “influence on a circulatory organ (blood pressure, heart rate)” value is “An influence of the compound of Reference Example 2 on a circulatory organ was observed”.

On to `CCc1cccc(Cn2c3c(c4cccnc42)CCN(C(=O)CC24CCC(C(=O)O)(CC2)C4)C3)c1` [Example 6(72), 4-{2-[9-(3-ethylbenzyl)-5,6,8,9-tetrahydro-7H-pyrido[4′,3′:4,5]pyrrolo[2,3-b]pyridin-7-yl]-2-oxoethyl}bicyclo[2.2.1]heptane-1-carboxylic acid], for which the “influence on a circulatory organ (blood pressure, heart rate)” value is listed as “no influence”.

The target in another series is human ENPP2 (Homo sapiens (Human), UniProt Q13822). Kind of series: Measurement of human ENPP2 inhibitory activity. The following applies: human ENPP2, 16:0-LPC substrate, read-out: ENPP2 inhibitory activity rate (%). Format: biochemical. The protocol:
10 μL of a test compound solution (10% dimethyl sulfoxide) at each concentration and 40 μL of a 5 μg/mL human ENPP2 solution (buffer A: 100 mmol/L Tris-HCl (pH 9.0), 500 mmol/L NaCl, 5 mmol/L MgCl2, 0.05% Triton X-100) were mixed, 50 μL of a 2 mmol/L 16:0-lysophosphatidylcholine (LPC) solution (buffer A) was further added to react at 37° C. for 24 hours. Subsequently, to 10 μL of the reaction solution was added 90 μL of a measurement buffer (0.5 mmol/L aminoantipyrine, 0.3 mmol/L N-ethyl-N-(2-hydroxy-3-sulfopropyl)-3-methylaniline, 1 U/mL peroxidase, 3 U/mL choline oxidase, 100 mmol/L Tris-HCl (pH 8.5), 5 mmol/L CaCl2) to react at 37° C. for 20 minutes, and spectrophotometric determination was performed at 555 nm.
Using a standard curve, a choline production amount (enzyme activity) in each test compound was calculated, and the inhibitory activity rate of each test compound was calculated, wherein the enzyme activity in a positive control to which a test compound is not added, was a 0% inhibition rate, and the enzyme activity in a negative control to which a test compound and human ENPP2 are not added, were 100% inhibition. Further, concerning the present compounds shown in Table 3, an IC50 value was calculated from inhibitory activity rate at each concentration.
`O=C(C[C@H]1CC[C@H](C(=O)O)CC1)N1CCc2c(n(Cc3csc(C(F)(F)F)c3)c3ncccc23)C1` [Example 6(13), trans-4-[2-oxo-2-(9-{[5-(trifluoromethyl)-3-thienyl]methyl}-5,6,8,9-tetrahydro-7H-pyrido[4′,3′:4,5]pyrrolo[2,3-b]pyridin-7-yl)ethyl]cyclohexanecarboxylic acid]: the inhibition at 1 µM is 99.2%.

`O=C(C[C@H]1CC[C@H](C(=O)O)CC1)N1CCc2c(n(Cc3ccc(C(F)(F)F)s3)c3ncccc23)C1` [Example 6(16), trans-4-[2-oxo-2-(9-{[5-(trifluoromethyl)-2-thienyl]methyl}-5,6,8,9-tetrahydro-7H-pyrido[4′,3′:4,5]pyrrolo[2,3-b]pyridin-7-yl)ethyl]cyclohexanecarboxylic acid]: the inhibition at 1 µM was found to be 99%.

Take `C[C@]1(C(=O)O)CC[C@H](CC(=O)N2CCc3c(n(Cc4cnc(C(F)(F)F)s4)c4ncccc34)C2)CC1` [Example 10(5), trans-1-methyl-4-[2-oxo-2-(9-{[2-(trifluoromethyl)-1,3-thiazol-5-yl]methyl}-5,6,8,9-tetrahydro-7H-pyrido[4′,3′:4,5]pyrrolo[2,3-b]pyridin-7-yl)ethyl]cyclohexanecarboxylic acid]: the inhibition at 1 µM was found to be 97.4%.

On to `O=C(CC12CCC(C(=O)O)(CC1)C2)N1CCc2c(n(Cc3ccc(C(F)(F)F)cc3)c3ncccc23)C1` [Example 6(68), 4-(2-oxo-2-{9-[4-(trifluoromethyl)benzyl]-5,6,8,9-tetrahydro-7H-pyrido[4′,3′:4,5]pyrrolo[2,3-b]pyridin-7-yl}ethyl)bicyclo[2.2.1]heptane-1-carboxylic acid], for which the inhibition at 1 µM was found to be 99.2%.

In the case of `CC1(C)[C@@H](CC(=O)N2CCc3c(n(Cc4cnc(C(F)(F)F)s4)c4ccccc34)C2)CC[C@@]1(C)C(=O)O` [Example 6(49), (1R,3R)-1,2,2-trimethyl-3-[2-oxo-2-(9-{[2-(trifluoromethyl)-1,3-thiazol-5-yl]methyl}-1,3,4,9-tetrahydro-2H-beta-carbolin-2-yl)ethyl]cyclopentanecarboxylic acid], the inhibition at 1 µM is 99.1%.

Consider `CC1(C(=O)O)CCN(CC(=O)N2CCc3c(n(Cc4ccc(C(F)(F)F)s4)c4ncccc34)C2)CC1` [Example 7(39), 4-methyl-1-[2-oxo-2-(9-{[5-(trifluoromethyl)-2-thienyl]methyl}-5,6,8,9-tetrahydro-7H-pyrido[4′,3′:4,5]pyrrolo[2,3-b]pyridin-7-yl)ethyl]-4-piperidinecarboxylic acid], for which the inhibition at 1 µM was 99.5%.

In the case of `CCc1cccc(Cn2c3c(c4cccnc42)CCN(C(=O)CC24CCC(C(=O)O)(CC2)C4)C3)c1` [Example 6(72), 4-{2-[9-(3-ethylbenzyl)-5,6,8,9-tetrahydro-7H-pyrido[4′,3′:4,5]pyrrolo[2,3-b]pyridin-7-yl]-2-oxoethyl}bicyclo[2.2.1]heptane-1-carboxylic acid], the inhibition at 1 µM came to 99.3%.
